# Measured values taken from patent publication US11819533B2, “Compositions and methods for the treatment of fungal infections” (Cidara Therapeutics, Inc., priority 2017, dated 2023).
# Entries after “also recorded” stand apart in the source; their conditions may differ. Like-named read-outs stand apart in the source and are kept apart here. Starred links: 1 amine or outer side, 2 acyl side, 3 side chain; linkers in the order of their positions; H or OH if unused. Positions of bridges follow the written chain, without caps; N, C: chain ends. Non-standard residues stand in square brackets, D forms with d. Residues, ends and D or L forms follow the SMILES beside them. *: point of attachment. Orn(4R-OH,5R-OCH2CH2NMe3+) = C[N+](C)(C)CCO[C@@H](N[*:3])[C@H](O)C[C@H](N[*:1])C(=O)[*:2]; pTerphenylCO(4''-OnC5H11) = CCCCCOc1ccc(-c2ccc(-c3ccc(C(=O)*)cc3)cc2)cc1; hTyr(3S-OH,4S-OH) = N[C@H](C(=O)O)[C@H](O)[C@@H](O)c1ccc(O)cc1; Pro(3S-OH,4S-Me) = C[C@H]1CN[C@H](C(=O)O)[C@H]1O; Hyp = O=C(O)[C@@H]1C[C@@H](O)CN1
# Tests used:
# [1] = Solubility of CD101 acetate in various media; type: physicochemical
# Excerpt: Table 1 below provides the solubility of CD101 acetate in different solutions.
# [2] = Dropwise addition of CD101 acetate 4 mg/mL solutions to 0.9% saline solution or PBS buffer, observed for drug insolubility; type: physicochemical
# Procedure: CD101 acetate 20 mg/kg dose was prepared in w/w in 5% dextrose solution (CD101 acetate at 4 mg/mL solution) for the following solutions using the salt to free base correction factor of 0.8784 for CD101 acetate: […]
# 0.5% w/w Tween 80 used. The pH of the solution is 5.21 (22.8 mg CD101 acetate into 5 mL 5% Dextrose with 0.5% w/w Tween 80 (0.1 g Tween 80+19.9 g 5% Dextrose))
# 1.0% w/w Tween 80 used. The pH of the solutions is 5.27 (22.9 mg CD101 acetate into 5 mL 5% Dextrose with 1.0% w/w Tween 80 (0.2 g Tween 80+19.8 g 5% Dextrose))
# 2.5% w/w Tween 80 used. The pH of the solutions is 5.29 (22.7 mg CD101 acetate into 5 mL 5% Dextrose with 2.5% w/w Tween 80 (0.5 g Tween 80+[…] 5% Dextrose))
# 1.0% w/w Tween 80 used. The pH of the solution was adjusted to 6.64 using 0.1 N NaOH. (22.9 mg CD101 acetate into 5 mL 5% Dextrose with 1.0% w/w Tween 80 (0.2 g Tween 80+19.8 g 5% Dextrose))
# Sprague Dawley rats = test: 14-day repeat-dose intravenous infusion toxicity study; type: in vivo; settings: for Animals that did not receive ten consecutive days of treatment (Days 5-14): females
# Procedure: The primary purpose of this study was to evaluate the toxicity of CD101 when administered intravenously as a 20-minute infusion into the lateral tail vein of Sprague Dawley rats for fourteen consecutive days. A positive control group (Eraxis®) with a similar structure and pharmacodynamic activity was included in the study design.
# The test article, CD101 acetate, was a white to off-white powder. The test article was prepared into dosing formulations for intravenous dose administration. One hundred experimentally naïve Sprague Dawley rats (50 males and 50 females), a minimum of 8 weeks old and weighing 255-318 grams (males) and 192-215 (females) at the outset of the study were assigned to treatment groups as shown in Table 7 below:
# All animals were dosed on Days 1 through 3 inclusive. As a result of tail vein irritation observed among all study groups, dose administration was suspended on Day 4 to allow the tails to recover. Dosing resumed on Day 5 and continued for a maximum of ten additional days (Days 5 through 14 inclusive). Animals that could no longer be dosed during this time remained on study.
# Male and female Sprague Dawley rats were to receive CD101 acetate at doses of 0, 2, 6 and 20 mg/kg/day (Groups 1, 3, 4 and 5, respectively) or Eraxis® (the positive control article, Group 2) at a dose of 40 mg/kg/day, intravenously as a 20 minute infusion into the left or right lateral tail vein for fourteen consecutive days. During the first three treatment days, all animals were dosed with the first vehicle used on this study (1.75% Tween 80/5% Dextrose: Groups 1 and 3-5; 5% Dextrose: Group 2). As a result of the localized tail swelling observed during the first three days of treatment, study Day 4 served as a drug-free day to alleviate tail vein irritation. Dose administration resumed on Day 5 using a new vehicle (5% Mannitol/2.5% Tween 80/0.3% acetic acid: Groups 1 and 3-5; 5% Mannitol/0.3% acetic acid: Group 2) for the remainder of the treatment period (Days 5-14). Those animals that could no longer be dosed because of severe vein irritation were retained on study, untreated, until the end of the study (Day 15).
# cynomolgus monkeys = test: Single-dose intravenous infusion tolerability study; type: in vivo
# Procedure: The objective of this study was to evaluate and compare the tolerability of CD101 when administered once by either a 20-minute or 60-minute intravenous infusion to cynomolgus monkeys. In addition, a vehicle similar to the intended initial clinical formulation was assessed when administered once by 20-minute intravenous infusion up to the highest feasible dose (10 mg/kg).
# This study was divided into 2 phases (Table 8). In phase 1, CD101 acetate was administered in vehicle-1 (1.25% Tween 80, 5% mannitol, 0.3% glacial acetic acid adjusted to pH 4.5±0.1) as a single 20-minute (±2 minutes) intravenous infusion to 1 animal/sex/group at 0 and 30 mg/kg (Groups 1 and 2, respectively). In addition, CD101 acetate was administered in vehicle-1 as a single 60-minute (±5 minutes) intravenous infusion to 1 animal/sex/group at 0 and 30 mg/kg (Groups 3 and 4, respectively).
# Dosing was staggered so that Group 5 was dosed 2 days after Groups 1-4.
# [3] = Dropwise addition of CD101 acetate 4 mg/mL solutions to 0.9% saline solution or PBS buffer, observed for drug insolubility; type: physicochemical; settings: 4 mg/mL in 5% dextrose and 0.5% Tween 80, pH 5.4
# [4] = 4 mg/mL in 5% dextrose and 1.0% Tween 80, adjusted to 6.64 pH using 0.1N NaOH
# [5] = 4 mg/mL in 5% dextrose and 1.0% Tween 80, pH 5.3
# [6] = 4 mg/mL in 5% dextrose and 2.5% Tween 80, pH 5.3
compound,measurement,setting,value
"CCCCCOc1ccc(-c2ccc(-c3ccc(C(=O)N[C@H]4C[C@@H](O)[C@@H](OCC[N+](C)(C)C)NC(=O)[C@@H]5[C@@H](O)[C@@H](C)CN5C(=O)[C@H]([C@@H](C)O)NC(=O)[C@H]([C@H](O)[C@@H](O)c5ccc(O)cc5)NC(=O)[C@@H]5C[C@@H](O)CN5C(=O)[C@H]([C@@H](C)O)NC4=O)cc3)cc2)cc1 [CD101 acetate] ({pTerphenylCO(4''-OnC5H11)}-[Orn(4R-OH,5R-OCH2CH2NMe3+)]T[Hyp][hTyr(3S-OH,4S-OH)]T[Pro(3S-OH,4S-Me)]; lactam 1-C)",solubility,"[1]; 15 mM potassium chloride, saline or isotonic, Potassium chloride (15 mM), read-out: Solubility",> 1700 µg/mL
same,solubility,"[1]; 50 mM acetate buffer with 0.4% Tween 20, aqueous with cosolvent or surfactant or cyclodextrin, 50 mM Acetate buffer pH 4.5 with 0.4% Tween 20, maximum solubility not reached, read-out: Solubility",> 31300 µg/mL
same,solubility,"[1]; 100 mM lactate buffer, aqueous buffer, Lactate buffer (100 mM), pH 6.5, maximum solubility not reached, read-out: Solubility",> 48000 µg/mL
same,solubility,"[1]; 100 mM lactate buffer, aqueous buffer, Lactate buffer (100 mM), pH 7.4, maximum solubility not reached, read-out: Solubility",> 51000 µg/mL
same,solubility,"[1]; 100 mM phosphate buffer, pH 7.4, aqueous buffer, read-out: Solubility",7 to 10 µg/mL
same,solubility,"[1]; 150 mM KCl, saline or isotonic, KCl (150 mM), read-out: Solubility",< 200 µg/mL
same,solubility,"[1]; 150 mM potassium chloride, saline or isotonic, Potassium chloride (150 mM), read-out: Solubility",160 µg/mL
same,solubility,"[1]; 0.9% saline with 0.125% Tween 80, aqueous with cosolvent or surfactant or cyclodextrin, 0.9% Saline (USP) with 0.125% Tween 80, read-out: Solubility",> 800 µg/mL
same,solubility,"[1]; 0.9% saline with 0.5% Tween 80, aqueous with cosolvent or surfactant or cyclodextrin, 0.9% Saline (USP) with 0.5% Tween 80, read-out: Solubility",> 3500 µg/mL
same,solubility,"[1]; 0.9% saline with 1% Tween 20, aqueous with cosolvent or surfactant or cyclodextrin, 0.9% Saline (USP) with 1% Tween 20, maximum solubility not reached, read-out: Solubility",> 2600 µg/mL
same,solubility,"[1]; 0.9% saline with 2.5% Tween 80, aqueous with cosolvent or surfactant or cyclodextrin, 0.9% Saline (USP) with 2.5% Tween 80 (polysorbate 80), read-out: Solubility",> 3500 µg/mL
same,solubility,"[1]; 0.9% saline with 4% dodecylmaltoside and 1% Tween 20, aqueous with cosolvent or surfactant or cyclodextrin, 0.9% Saline Solution (USP), 4% dodecylmaltoside (DDM), 1% Tween 20, maximum solubility not reached, read-out: Solubility",> 10000 µg/mL
same,solubility,"[1]; 0.9% saline with 7% tetradecylmaltoside, aqueous with cosolvent or surfactant or cyclodextrin, 0.9% Saline Solution (USP), 7% tetradecylmaltoside (TDM), maximum solubility not reached, read-out: Solubility",> 11000 µg/mL
same,Solubility in words,[1]; PBS buffer,nearly insoluble
same,solubility,"[1]; PBS buffer with 2.5% Tween 80, pH 7.4, aqueous with cosolvent or surfactant or cyclodextrin, read-out: Solubility",> 4000 µg/mL
same,solubility,"[1]; Water (USP), maximum solubility not reached, read-out: Solubility",> 100000 µg/mL
same,solubility,"[1]; aqueous buffer, 100 mM Tris buffer, pH 7.4, maximum solubility not reached, read-out: Solubility",> 52000 µg/mL
same,solubility,"[1]; aqueous buffer, 1:10 diluted PBS buffer, pH 7.4, maximum solubility not reached, read-out: Solubility",> 2100 µg/mL
same,solubility,"[1]; aqueous buffer, 5% Citric Acid, maximum solubility not reached, read-out: Solubility",> 18600 µg/mL
same,solubility,"[1]; aqueous buffer, 50-100 mM Acetate buffer, pH 4.5, maximum solubility not reached, read-out: Solubility",> 45000 µg/mL
same,solubility,"[1]; aqueous buffer, Phosphate buffered saline (PBS buffer), pH 7.4, read-out: Solubility",5 to 7 µg/mL
same,solubility,"[1]; aqueous with cosolvent or surfactant or cyclodextrin, 0.3% acetic acid, 5% mannitol, 2.5% Tween 80, pH 4.5, maximum solubility not reached, read-out: Solubility",> 15000 µg/mL
same,solubility,"[1]; aqueous with cosolvent or surfactant or cyclodextrin, 0.85% Tween 80 in PBS buffer, pH 7.4, maximum solubility not reached, read-out: Solubility",> 4100 µg/mL
same,solubility,"[1]; aqueous with cosolvent or surfactant or cyclodextrin, 2.5% Tween 80, 5% mannitol, 0.3% acetic acid, pH 4.5, maximum solubility not reached, read-out: Solubility",> 16000 µg/mL
same,solubility,"[1]; aqueous with cosolvent or surfactant or cyclodextrin, Lactated Ringer's Solution for Injection (USP), prepared from stock in USP water with 0.7% Tween 20, maximum solubility not reached, read-out: Solubility",> 800 µg/mL
same,solubility,"[1]; aqueous with cosolvent or surfactant or cyclodextrin, PBS buffer with 1% Tween 20, pH 7.4, maximum solubility not reached, read-out: Solubility",> 370 µg/mL
same,solubility,"[1]; saline or isotonic, 0.09% Saline, maximum solubility not reached, read-out: Solubility",> 1400 µg/mL
same,solubility,"[1]; saline or isotonic, 0.225% Saline (USP), maximum solubility not reached, read-out: Solubility",> 1200 µg/mL
same,solubility,"[1]; saline or isotonic, 0.45% Saline (USP), maximum solubility not reached, read-out: Solubility",> 1300 µg/mL
same,solubility,"[1]; saline or isotonic, 0.9% Saline (USP), read-out: Solubility",< 180 µg/mL
same,solubility,"[1]; saline or isotonic, 5% D-Mannitol, maximum solubility not reached, read-out: Solubility",> 4000 µg/mL
same,solubility,"[1]; saline or isotonic, 5% Dextrose Solution (USP), maximum solubility not reached, read-out: Solubility",> 12000 µg/mL
same,solubility,"[1]; saline or isotonic, 5% dextrose, 5% mannitol and 0.22%-0.45% Sterile Saline Solution, read-out: Solubility (soluble)",> 1000 µg/mL
same,solubility,"[1]; saline or isotonic, Lactated Ringer's Solution for Injection (USP), read-out: Solubility",< 100 µg/mL
same,Appearance after 1.5 mL added to (A) 5 mL 0.9% saline solution,[2]; [4],Clear
same,Appearance after 1.5 mL added to (B) 5 mL PBS buffer,[2]; [4],Clear
same,Appearance after 1.5 mL added to (A) 5 mL 0.9% saline solution,[2]; [5],Clear
same,Appearance after 1.5 mL added to (B) 5 mL PBS buffer,[2]; [5],Clear
same,Appearance after 1.5 mL added to (A) 5 mL 0.9% saline solution,[2]; [6],Clear
same,Appearance after 1.5 mL added to (B) 5 mL PBS buffer,[2]; [6],Clear
same,Incidence of tail vein irritation,"Sprague Dawley rats; Days 1-3, first vehicle (1.75% Tween 80 and 5% Dextrose for CD101 acetate; 5% Dextrose for Eraxis), Eraxis 40 mg/kg/day, CD101 acetate 6 and 20 mg/kg/day, males and females",highest
same,"Vein irritation compared to Groups 1, 3 and 4","Sprague Dawley rats; Days 5-14, second vehicle (5% Mannitol, 2.5% Tween 80, 0.3% Acetic Acid for CD101 acetate; 5% Mannitol and 0.3% Acetic Acid for Eraxis), Eraxis 40 mg/kg/day, CD101 acetate 20 mg/kg/day",only marginally higher
same,Animals that did not receive ten consecutive days of treatment (Days 5-14),"Sprague Dawley rats; high dose 20 mg/kg/day (Group 5), second vehicle 5% Mannitol/2.5% Tween 80/0.3% acetic acid",90%
same,Animals that did not receive ten consecutive days of treatment (Days 5-14),"Sprague Dawley rats; low dose 2 mg/kg/day (Group 3), second vehicle 5% Mannitol/2.5% Tween 80/0.3% acetic acid",10%
same,Animals that did not receive ten consecutive days of treatment (Days 5-14),"Sprague Dawley rats; mid-dose 6 mg/kg/day (Group 4), second vehicle 5% Mannitol/2.5% Tween 80/0.3% acetic acid",10%
same,Animals dosed for less than the intended ten-day duration (Days 5-14) as a result of tail swelling/lesions,"Sprague Dawley rats; males, high dose 20 mg/kg/day (Group 5), second vehicle 5% Mannitol/2.5% Tween 80/0.3% acetic acid",30%
same,Tolerability in vehicle similar to intended clinical formulation,"cynomolgus monkeys; 10 mg/kg (highest feasible dose), 20-minute IV infusion in vehicle-2 (0.50% Tween 80, 0.76% mannitol, 0.125% sodium lactate in 3.5% dextrose, pH 5.5)",can be administered safely
same,Tolerability of 20-minute versus 60-minute infusion,"cynomolgus monkeys; single IV infusion 30 mg/kg in vehicle-1 (1.25% Tween 80, 5% mannitol, 0.3% glacial acetic acid, pH 4.5)",no differences that could be attributed to the duration of infusion; also recorded: no differences between the tolerability of a 20-minute and 60-minute infusion
same,Clinical observations,"cynomolgus monkeys; single IV infusion, 30 mg/kg in vehicle-1 (20 or 60 min) or 10 mg/kg in vehicle-2 (20 min)",No other remarkable clinical observations
same,Appearance after 1.5 mL added to (A) 5 mL 0.9% saline solution,[3],clear
